By IC50 is commonly meant the midpoint of a concentration-inhibition curve. Low readings indicate higher potency, high ones lower potency.

Where only a bound is given, the exact number is not on record here.

Experimental findings from patent publication US11377469B2, “CD73 inhibitors” (ORIC Pharmaceuticals, Inc., priority 2017, dated 2022) are described below.

In this test the target is CD73 (Homo sapiens (Human), UniProt P21589). The test can be described thus: Biochemical Assay (CD73 inhibition, AMP hydrolysis, Malachite Green readout). The following applies: CD73 0.3208 nM, AMP 15 μM, Tris-HCl pH 7.4, Malachite Green absorbance. As to the method: Example A1: Biochemical Assay
CD73, sequence (P21589 27-574): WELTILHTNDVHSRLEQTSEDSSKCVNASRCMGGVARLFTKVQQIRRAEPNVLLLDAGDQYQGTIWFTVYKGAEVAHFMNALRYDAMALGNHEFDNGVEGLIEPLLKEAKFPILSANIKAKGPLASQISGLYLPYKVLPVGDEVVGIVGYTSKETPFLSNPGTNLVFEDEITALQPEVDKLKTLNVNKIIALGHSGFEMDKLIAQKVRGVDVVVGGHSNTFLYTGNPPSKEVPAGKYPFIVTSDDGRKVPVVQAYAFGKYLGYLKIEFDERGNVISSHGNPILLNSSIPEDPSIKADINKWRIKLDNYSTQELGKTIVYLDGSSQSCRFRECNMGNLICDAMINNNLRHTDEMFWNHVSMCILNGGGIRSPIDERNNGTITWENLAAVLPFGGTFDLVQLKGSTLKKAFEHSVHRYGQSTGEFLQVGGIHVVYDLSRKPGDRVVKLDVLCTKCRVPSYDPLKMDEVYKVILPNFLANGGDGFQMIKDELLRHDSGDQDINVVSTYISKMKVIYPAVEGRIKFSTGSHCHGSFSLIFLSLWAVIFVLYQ
Assay Reaction Conditions
• Assay Volume: 70 μl • Reaction Volume: 50 μl • CD73: 0.3208 nM • AMP: 15 μM • Assay Buffer: 2 5 mM Tris-HCL, pH 7.4, 0.01% Brij-35, 0.01% BSA, 5 mM MgCl2 Assay Procedure:
Made dose titration of testing compounds in assay buffer, 10 points ½ log titrations in duplicates starting at 100 μM.
Added 25 μl of CD73 to each well for a final concentration of 320 pM.
Incubated at RT for 15 min.
Added 25 μl of AMP to each well for a final concentration of 15 μM.
Incubated at RT for 10 min.
Added 10 μl of Malachite Green Reagent A, incubate at RT for 10 min.
Added 10 μl of Malachite Green Reagent B, incubate at RT for 45 min. […]
The ability of the compounds disclosed herein to inhibit CD73 activity was quantified and the respective IC50 values were determined. Table 1 provides the biochemical IC50 values of compounds disclosed herein.
On to “((((1R,2R,3S,4R)-4-(5-Chloro-7-(((R)-2,3-dihydro-1H-inden-1-yl)amino)-3H-[1,2,3]triazolo[4,5-d]pyrimidin-3-yl)-2,3-dihydroxycyclopentyl)methoxy)methyl)phosphonic acid [Example 23]”, for which the IC50 is not above 500 nM.
Under `N#CC1(CNc2nc(Cl)nc3c2cnn3[C@@H]2O[C@H](COCP(=O)(O)O)[C@@H](O)[C@H]2O)CC1` [Example 138, ((((2R,3S,4R,5R)-5-(6-chloro-4-(((1-cyanocyclopropyl)methyl)amino)-1H-pyrazolo[3,4-d]pyrimidin-1-yl)-3,4-dihydroxytetrahydrofuran-2-yl)methoxy)methyl)phosphonic acid] stands not above 500 nM; under `O=P(O)(O)CS(=O)(=O)C[C@H]1O[C@@H](n2ncc3c(NCc4ccc(Cl)cc4)nc(Cl)nc32)[C@H](O)[C@@H]1O` [Example 127, (((((2S,3S,4R,5R)-5-(6-chloro-4-((4-chlorobenzyl)amino)-1H-pyrazolo[3,4-d]pyrimidin-1-yl)-3,4-dihydroxytetrahydrofuran-2-yl)methyl)sulfonyl)methyl)phosphonic acid], not above 500 nM.
In turn, `COP(=O)(CP(=O)(O)O)OC[C@H]1O[C@@H](n2nnc3c(NC4CCCC4)nc(Cl)nc32)[C@H](O)[C@@H]1O` (stereo partly drawn) [Example 106, (((((2R,3S,4R,5R)-5-(5-chloro-7-(cyclopentylamino)-3H-[1,2,3]triazolo[4,5-d]pyrimidin-3-yl)-3,4-dihydroxytetrahydrofuran-2-yl)methoxy)(methoxy)phosphoryl)methyl) phosphonic acid] showed a half-inhibitory concentration (IC50) not above 500 nM.
On to `O=P(O)(O)CS(=O)(=O)C[C@H]1O[C@@H](n2nnc3c(NCC4CCC4)nc(Cl)nc32)[C@H](O)[C@@H]1O` [Example 113, (((((2S,3S,4R,5R)-5-(5-chloro-7-((cyclobutylmethyl)amino)-3H-[1,2,3]triazolo[4,5-d]pyrimidin-3-yl)-3,4-dihydroxytetrahydrofuran-2-yl)methyl)sulfonyl)methyl)phosphonic acid], for which the concentration for half-maximal inhibition (IC50) was not above 500 nM.
In the case of `C[C@H](Nc1nc(Cl)nc2c1cnn2[C@@H]1O[C@H](COCP(=O)(O)O)[C@@H](O)[C@H]1O)c1ccccc1Cl` [Example 33, ((((2R,3S,4R,5R)-5-(6-chloro-4-(((S)-1-(2-chlorophenyl)ethyl)amino)-1H-pyrazolo[3,4-d]pyrimidin-1-yl)-3,4-dihydroxytetrahydrofuran-2-yl)methoxy)methyl)phosphonic acid] it was not above 500 nM; in that of `O=P(O)(O)COC[C@H]1O[C@@H](n2ncc3c(OCc4cccc(Cl)c4)nc(Cl)nc32)[C@H](O)[C@@H]1O` [Example 65, ((((2R,3S,4R,5R)-5-(6-chloro-4-((3-chlorobenzyl)oxy)-1H-pyrazolo[3,4-d]pyrimidin-1-yl)-3,4-dihydroxytetrahydrofuran-2-yl)methoxy)methyl)phosphonic acid], more than 1000 nM; in that of `C[C@@H](Nc1nc(Cl)nc2c1cnn2[C@@H]1O[C@H](COCP(=O)(O)O)[C@@H](O)[C@H]1O)C1CC1` [Example 92, ((((2R,3S,4R,5R)-5-(6-chloro-4-(((R)-1-cyclopropylethyl)amino)-1H-pyrazolo[3,4-d]pyrimidin-1-yl)-3,4-dihydroxytetrahydrofuran-2-yl)methoxy)methyl)phosphonic acid], not above 500 nM.
For `O=P(O)(O)CS(=O)(=O)C[C@H]1O[C@@H](n2nnc3c(NCc4ccccc4Cl)nc(Cl)nc32)[C@H](O)[C@@H]1O` [Example 118, (((((2S,3S,4R,5R)-5-(5-chloro-7-((2-chlorobenzyl)amino)-3H[1,2,3]triazolo[4,5-d]pyrimidin-3-yl)-3,4-dihydroxytetrahydrofuran-2-yl)methyl)sulfonyl)methyl)phosphonic acid], the IC50 was not above 500 nM.
Under `O=P(O)(O)CS(=O)(=O)C[C@H]1O[C@@H](n2nnc3c(NCc4ccc(Cl)cc4)nc(Cl)nc32)[C@H](O)[C@@H]1O` [Example 120, (((((2S,3S,4R,5R)-5-(5-chloro-7-((4-chlorobenzyl)amino)-3H[1,2,3]triazolo[4,5-d]pyrimidin-3-yl)-3,4-dihydroxytetrahydrofuran-2-yl)methyl)sulfonyl)methyl)phosphonic acid] stands not above 500 nM.
In turn, `CN(c1nc(Cl)nc2c1cnn2[C@@H]1O[C@H](CCP(=O)(O)O)[C@@H](O)[C@H]1O)[C@H]1CCc2ccccc21` [Example 4, (2-((2R,3S,4R,5R)-5-(6-Chloro-4-(((S)-2,3-dihydro-1H-inden-1-yl)(methyl)amino)-1H-pyrazolo[3,4-d]pyrimidin-1-yl)-3,4-dihydroxytetrahydrofuran-2-yl)ethyl)phosphonic acid] came in with an IC50 of more than 1000 nM.
Compound `O=P(O)(O)CS(=O)(=O)C[C@H]1O[C@@H](n2nnc3c(NCc4cccc(Cl)c4)nc(Cl)nc32)[C@H](O)[C@@H]1O` [Example 122] gave a half-inhibitory concentration (IC50) not above 500 nM.
In turn, `COc1nc(NCC2CC2)c2cnn([C@@H]3O[C@H](COCP(=O)(O)O)[C@@H](O)[C@H]3O)c2n1` [Example 82, ((((2R,3S,4R,5R)-5-(4-((cyclopropylmethyl)amino)-6-methoxy-1H-pyrazolo[3,4-d]pyrimidin-1-yl)-3,4-dihydroxytetrahydrofuran-2-yl)methoxy)methyl)phosphonic acid] came in with a half-inhibitory concentration (IC50) of 500 to 1000 nM.
In the case of `CC(C)Nc1nc(Cl)nc2c1cnn2[C@@H]1O[C@H](COCP(=O)(O)O)[C@@H](O)[C@H]1O` [Example 74, ((((2R,3S,4R,5R)-5-(6-chloro-4-(isopropylamino)-1H-pyrazolo[3,4-d]pyrimidin-1-yl)-3,4-dihydroxytetrahydrofuran-2-yl)methoxy)methyl)phosphonic acid], the IC50 is not above 500 nM.
In the case of `CC(C)COc1nc(NCc2cccc(Cl)c2)c2cnn([C@@H]3O[C@H](COCP(=O)(O)O)[C@@H](O)[C@H]3O)c2n1` [Example 54, ((((2R,3S,4R,5R)-5-(4-((3-chlorobenzyl)amino)-6-isobutoxy-1H-pyrazolo[3,4-d]pyrimidin-1-yl)-3,4-dihydroxytetrahydrofuran-2-yl)methoxy)methyl)phosphonic acid] it was more than 1000 nM.
In the case of `O=P(O)(O)COC[C@H]1O[C@@H](n2ncc3c(NCc4cccc5ncccc45)nc(Cl)nc32)[C@H](O)[C@@H]1O` [Example 51, ((((2R,3S,4R,5R)-5-(6-chloro-4-((quinolin-5-ylmethyl)amino)-1H-pyrazolo[3,4-d]pyrimidin-1-yl)-3,4-dihydroxytetrahydrofuran-2-yl)methoxy)methyl)phosphonic acid] it was not above 500 nM.
Under `O=P(O)(O)CS(=O)(=O)C[C@H]1O[C@@H](n2ncc3c(NC4CCCC4)nc(CO)nc32)[C@H](O)[C@@H]1O` [Example 125, (((((2S,3S,4R,5R)-5-(4-(cyclopentylamino)-6-(hydroxymethyl)-1H-pyrazolo[3,4-d]pyrimidin-1-yl)-3,4-dihydroxytetrahydrofuran-2-yl)methyl)sulfonyl)methyl)phosphonic acid] stands not above 500 nM; under `CN(Cc1ccccc1)c1nc(Cl)nc2c1cnn2[C@H]1O[C@H](COCCP(=O)(O)O)[C@@H](O)[C@H]1O` [Example 6, (2-(((2R,3S,4R,5S)-5-(4-(Benzyl(methyl)amino)-6-chloro-1H-pyrazolo[3,4-d]pyrimidin-1-yl)-3,4-dihydroxytetrahydrofuran-2-yl)methoxy)ethyl)phosphonic acid], more than 1000 nM.
With `O=P(O)(O)COC[C@H]1O[C@@H](n2ncc3c(NC4CC4)nc(Cl)nc32)[C@H](O)[C@@H]1O` [Example 76, ((((2R,3S,4R,5R)-5-(6-chloro-4-(cyclopropylamino)-1H-pyrazolo[3,4-d]pyrimidin-1-yl)-3,4-dihydroxytetrahydrofuran-2-yl)methoxy)methyl)phosphonic acid], the concentration for half-maximal inhibition (IC50) is not above 500 nM.
Under `Cc1ccc(-c2nc(Cl)nc3c2cnn3[C@@H]2O[C@H](COCP(=O)(O)O)[C@@H](O)[C@H]2O)o1` [Example 100, ((((2R,3S,4R,5R)-5-(6-chloro-4-(5-methylfuran-2-yl)-1H-pyrazolo[3,4-d]pyrimidin-1-yl)-3,4-dihydroxytetrahydrofuran-2-yl)methoxy)methyl)phosphonic acid] stands not above 500 nM; under `O=P(O)(O)COC[C@H]1O[C@@H](n2ccc3c(NCC4CC4)nc(Cl)nc32)[C@H](O)[C@@H]1O` [Example 15, ((((2R,3S,4R,5R)-5-(2-Chloro-4-((cyclopropylmethyl)amino)-7H-pyrrolo[2,3-d]pyrimidin-7-yl)-3,4-dihydroxytetrahydrofuran-2-yl)methoxy)methyl)phosphonic acid], not above 500 nM; under `CCNc1nc(Cl)nc2c1cnn2[C@@H]1O[C@H](COCP(=O)(O)O)[C@@H](O)[C@H]1O` [Example 43, ((((2R,3S,4R,5R)-5-(6-chloro-4-(ethylamino)-1H-pyrazolo[3,4-d]pyrimidin-1-yl)-3,4-dihydroxytetrahydrofuran-2-yl)methoxy)methyl)phosphonic acid], not above 500 nM.
In the case of `CN(CC1CC1)c1nc(Cl)nc2c1cnn2[C@@H]1O[C@H](COCP(=O)(O)O)[C@@H](O)[C@H]1O` [Example 72, ((((2R,3S,4R,5R)-5-(6-chloro-4-((cyclopropylmethyl)(methyl)amino)-1H-pyrazolo[3,4-d]pyrimidin-1-yl)-3,4-dihydroxytetrahydrofuran-2-yl)methoxy)methyl)phosphonic acid] it was not above 500 nM.
